Results from patent US5326867A, “Pradimic acids, amides, and pradimicin derivatives” (Bristol-Myers Squibb Company, priority 1992, dated 1994).
In brackets after ≈: the same amount, converted by molar mass.

Legend:
Assay type in all cases: cell-based
Aspergillus fumigatus = test: In vitro antifungal activity, MIC by serial agar dilution method; settings: Sabouraud dextrose agar, 10^6 cells/ml, 40 hours at 28° C.
Experimental: (§1) Antifungal activities of representative compounds of the present invention were evaluation in vitro. The minimum inhibitory concentrations (MICs) against various fungi were determined by serial agar dilution method using Sabouraud dextrose agar. Thus, approximately 0.003 ml of fungal suspension containing 10^6 cells/ml was applied to the surface of agar plates containing the test antibiotics.

Candida albicans = test: as above; settings: Sabouraud dextrose agar, 10^6 cells/ml, 40 hours at 28° C.
Experimental: as §1

Cryptococcus neoformans = test: as above; settings: Sabouraud dextrose agar, 10^6 cells/ml, 40 hours at 28° C.
Experimental: as §1

[1] = tested on: Trichophyton mentagrophytes; test: as above; settings: Sabouraud dextrose agar, 10^6 cells/ml, 40 hours at 28° C.
Experimental: as §1

fungi = test: Antifungal activity of synthesized pradimicin A compared with naturally occurring pradimicin A; settings: semisynthetic product of Example 12 vs naturally occurring pradimicin A

Row | Structure (SMILES) | MIC (Aspergillus fumigatus) [µg/mL] | MIC (Candida albicans) [µg/mL] | MIC (Cryptococcus neoformans) [µg/mL] | MIC [1] [µg/mL] | antifungal activity (fungi)
1 | CN[C@@H]1[C@H](O[C@@H]2OC[C@@H](O)[C@H](O)[C@H]2O)[C@@H](O)[C@H](O[C@H]2c3cc(C)c(C(=O)N[C@@H](CO)C(=O)O)c(O)c3-c3c(cc4c(c3O)C(=O)c3cc(OC)cc(O)c3C4=O)[C@@H]2O)O[C@@H]1C [Example 14] | > 100 | 12.5 (≈ 14.6 µM) | 12.5 (≈ 14.6 µM) | > 100 | 
2 | CN[C@@H]1[C@H](O[C@@H]2OC[C@@H](O)[C@H](O)[C@H]2O)[C@@H](O)[C@H](O[C@H]2c3cc(C)c(C(=O)N[C@H](CC(=O)O)C(=O)O)c(O)c3-c3c(cc4c(c3O)C(=O)c3cc(OC)cc(O)c3C4=O)[C@@H]2O)O[C@@H]1C [Example 16] | 50 (≈ 56.5 µM) | 12.5 (≈ 14.1 µM) | 6.3 (≈ 7.12 µM) | 12.5 (≈ 14.1 µM) | 
3 | CCNC(=O)SC[C@@H](NC(=O)c1c(C)cc2c(c1O)-c1c(cc3c(c1O)C(=O)c1cc(OC)cc(O)c1C3=O)[C@H](O)[C@H]2O[C@@H]1O[C@H](C)[C@H](NC)[C@H](O[C@@H]2OC[C@@H](O)[C@H](O)[C@H]2O)[C@H]1O)C(=O)O [Example 23] | 3.1 (≈ 3.28 µM) | 25 (≈ 26.5 µM) | 3.1 (≈ 3.28 µM) | 12.5 (≈ 13.2 µM) | 
4 | CN[C@@H]1[C@H](O[C@@H]2OC[C@@H](O)[C@H](O)[C@H]2O)[C@@H](O)[C@H](O[C@H]2c3cc(C)c(C(=O)N[C@H](CN)C(=O)O)c(O)c3-c3c(cc4c(c3O)C(=O)c3cc(OC)cc(O)c3C4=O)[C@@H]2O)O[C@@H]1C [Example 15] | 6.3 (≈ 7.36 µM) | 25 (≈ 29.2 µM) | 6.3 (≈ 7.36 µM) | 6.3 (≈ 7.36 µM) | 
5 | CN[C@@H]1[C@H](O[C@@H]2OC[C@@H](O)[C@H](O)[C@H]2O)[C@@H](O)[C@H](O[C@H]2c3cc(C)c(C(=O)N[C@H](Cc4cnc[nH]4)C(=O)O)c(O)c3-c3c(cc4c(c3O)C(=O)c3cc(OC)cc(O)c3C4=O)[C@@H]2O)O[C@@H]1C [Example 19] | 50 (≈ 55.1 µM) | > 50 | 12.5 (≈ 13.8 µM) | 12.5 (≈ 13.8 µM) | 
6 | COc1cc(O)c2c(c1)C(=O)c1c(cc3c(c1O)-c1c(cc(C)c(C(=O)N[C@H](C)C(=O)O)c1O)[C@H](O[C@@H]1O[C@H](C)[C@H](O)[C@H](O[C@@H]4OC[C@@H](O)[C@H](O)[C@H]4O)[C@H]1O)[C@H]3O)C2=O [Example 31] | 3.1 (≈ 3.75 µM) | 6.3 (≈ 7.61 µM) | 3.1 (≈ 3.75 µM) | 3.1 (≈ 3.75 µM) | 
7 | COc1cc(O)c2c(c1)C(=O)c1c(cc3c(c1O)-c1c(cc(C)c(C(=O)N[C@H](CSSC[C@@H](N)C(=O)O)C(=O)O)c1O)[C@H](O[C@@H]1O[C@H](C)[C@H](O)[C@H](O[C@@H]4OC[C@@H](O)[C@H](O)[C@H]4O)[C@H]1O)[C@H]3O)C2=O [Example 29] | 6.3 (≈ 6.44 µM) | 6.3 (≈ 6.44 µM) | 3.1 (≈ 3.17 µM) | 12.5 (≈ 12.8 µM) | 
8 | CN[C@@H]1[C@H](O[C@@H]2OC[C@@H](O)[C@H](O)[C@H]2O)[C@@H](O)[C@H](O[C@H]2c3cc(C)c(C(=O)N[C@H](Cc4ccccc4)C(=O)O)c(O)c3-c3c(cc4c(c3O)C(=O)c3cc(OC)cc(O)c3C4=O)[C@@H]2O)O[C@@H]1C [Example 18] | 6.3 (≈ 6.87 µM) | > 100 | 1.6 (≈ 1.75 µM) | 12.5 (≈ 13.6 µM) | 
9 | CN[C@@H]1[C@H](O[C@@H]2OC[C@@H](O)[C@H](O)[C@H]2O)[C@@H](O)[C@H](O[C@H]2c3cc(C)c(C(=O)N[C@H](CCCCN)C(=O)O)c(O)c3-c3c(cc4c(c3O)C(=O)c3cc(OC)cc(O)c3C4=O)[C@@H]2O)O[C@@H]1C [Example 21] | 6.3 (≈ 7.02 µM) | 25 (≈ 27.8 µM) | 6.3 (≈ 7.02 µM) | 6.3 (≈ 7.02 µM) | 
10 | CN[C@@H]1[C@H](O[C@@H]2OC[C@@H](O)[C@H](O)[C@H]2O)[C@@H](O)[C@H](O[C@H]2c3cc(C)c(C(=O)NCc4nnn[nH]4)c(O)c3-c3c(cc4c(c3O)C(=O)c3cc(OC)cc(O)c3C4=O)[C@@H]2O)O[C@@H]1C [Example 20] | 3.1 (≈ 3.64 µM) | 6.3 (≈ 7.4 µM) | 3.1 (≈ 3.64 µM) | 3.1 (≈ 3.64 µM) | 
11 | COc1cc(O)c2c(c1)C(=O)c1c(cc3c(c1O)-c1c(cc(C)c(C(=O)N[C@@H](CO)C(=O)O)c1O)[C@H](O[C@@H]1O[C@H](C)[C@H](O)[C@H](O[C@@H]4OC[C@@H](O)[C@H](O)[C@H]4O)[C@H]1O)[C@H]3O)C2=O [Example 30] | > 100 | 12.5 (≈ 14.8 µM) | 50 (≈ 59.3 µM) | > 100 | 
12 | CN[C@@H]1[C@H](O[C@@H]2OC[C@@H](O)[C@H](O)[C@H]2O)[C@@H](O)[C@H](O[C@H]2c3cc(C)c(C(=O)N[C@H](C)C(=O)O)c(O)c3-c3c(cc4c(c3O)C(=O)c3cc(OC)cc(O)c3C4=O)[C@@H]2O)O[C@@H]1C [pradimicin A] |  |  |  |  | identical to naturally occurring pradimicin A in spectroscopic data (NMR, IR, UV), HPLC and antifungal activity
13 | CN[C@@H]1[C@H](O[C@@H]2OC[C@@H](O)[C@H](O)[C@H]2O)[C@@H](O)[C@H](O[C@H]2c3cc(C)c(C(=O)NC(C(=O)O)C(F)(F)F)c(O)c3-c3c(cc4c(c3O)C(=O)c3cc(OC)cc(O)c3C4=O)[C@@H]2O)O[C@@H]1C (stereo partly drawn) [Example 17] | 50 (≈ 55.9 µM) | > 100 | 3.1 (≈ 3.46 µM) | > 100 | 
14 | COc1cc(O)c2c(c1)C(=O)c1c(cc3c(c1O)-c1c(cc(C)c(C(=O)N[C@@H](C(=O)O)[C@H](C)O)c1O)[C@H](O[C@@H]1O[C@H](C)[C@H](O)[C@H](O[C@@H]4OC[C@@H](O)[C@H](O)[C@H]4O)[C@H]1O)[C@H]3O)C2=O [Example 27, 15-Desalanyl-15-(D-threonyl) -4'-desmethylamino-4'-hydroxypradimicin A] | 12.5 (≈ 14.6 µM) | 12.5 (≈ 14.6 µM) | 6.3 (≈ 7.34 µM) | 12.5 (≈ 14.6 µM) | 
15 | CN[C@@H]1[C@H](O[C@@H]2OC[C@@H](O)[C@H](O)[C@H]2O)[C@@H](O)[C@H](O[C@H]2c3cc(C)c(C(=O)N[C@H](Cc4ccc(O)c(O)c4)C(=O)O)c(O)c3-c3c(cc4c(c3O)C(=O)c3cc(OC)cc(O)c3C4=O)[C@@H]2O)O[C@@H]1C [Example 13, 15-Desalanyl-15-[D-(3,4-dihydroxyphenyl)alanyl] pradimicin A] | > 50 | > 50 | 25 (≈ 26.3 µM) | 50 (≈ 52.7 µM) | 
